Where two headings read alike, the source gives them in different places.
What was measured:
[1] = target: T1, IDO1-expressing HEK293 cell clones (Homo sapiens, UniProt P14902); test: Cell based kynurenine assay, IDO1-expressing HEK293 cell clones
T1 construct: expressed in transfected cells; host or cells: HEK293
Method: (§1) IDO1-expressing or TDO-expressing HEK293 cell clones are generated upon stable transfection of plasmids expressing human IDO or human TDO under the control of CMV promoter. Cells are selected in DMEM media supplemented with 10% fetal bovine serum and 1 mg/ml G418 at 37° C. in a humidified incubator supplied with 5% CO2. The assays are performed as follows.
(§2) Cells were seeded in a 96 well plate in 50 μL of culture media at a density of 2.5×10^4 per well. Serial dilutions of compounds (in total volume of 50 μL culture media) are added into cells. 4 wells containing 0.2% DMSO treated cells serve as high controls and 4 wells containing media only with 0.2% DMSO serve as low controls. After 24 hours of incubation, the supernatant was transferred to a 384 well reaction plate and the kynurenine level determined. The percentage inhibition at individual concentrations relative to high and low controls is calculated. The data is analyzed by using nonlinear regression to generate IC50 values.

IDO1 = target: T2, IDO1 (Homo sapiens, UniProt P14902); test: IDO enzymatic assay; type: biochemical
T2 construct: His tag (N); made in house; host or cells: E. coli
Method: (§3) Human IDO or TDO with N-terminal His tag is purified in E. coli. The IDO enzymatic assay is performed using 6 nM IDO and 10 μM L-Trp in the presence of 10 mM ascorbic acid, 5 μM methylene blue, 100 nM catalase and 0.01% Tween 20 in 50 mM sodium phosphate buffer (pH 6.5). 19 μL of above reaction mixture is added to wells of 384 well reaction plate containing 1 μL of various concentrations of test compound or DMSO vehicle and incubated for 20 minutes at room temperature. The TDO enzymatic reaction assay is performed using 1 nM TDO and 350 μM L-Trp in the presence of 10 mM ascorbic acid, 0.4 μM methylene blue, 100 nM catalase and 0.01% Tween 20 in 50 mM sodium phosphate buffer (pH 6.5). 19 μL of above reaction mixture is added to wells of 384 well reaction plate containing 1 μL of various concentrations of test compound or DMSO vehicle and incubated for 70 minutes at room temperature. 16 wells containing all the components of reaction mixture and 5% DMSO serve as high control. 16 well containing all the components except enzyme of reaction mixture and 5% DMSO serves as low control. Both IDO and TDO enzymatic reactions are stopped by addition of 4 μL of 30% TCA and incubated 30 minutes at 50° C. to hydrolyze N-formylkynurenine produced by IDO or TDO to kynurenine. Upon measuring the kynurenine level, the percentage inhibition is calculated at individual concentrations relative to high and low controls. The data is analyzed by using nonlinear regression to generate IC50 values.

TDO = target: T3, TDO (Homo sapiens, UniProt P48775); test: TDO enzymatic assay; details: geometric mean; read-out: TDO GMean: IC50 (μM) (Biochemical Assay)
T3 construct: His tag (N); made in house; host or cells: E. coli
Method: as §3

[2] = target: T4, TDO-expressing HEK293 cell clones (Homo sapiens, UniProt P48775); test: Cell based kynurenine assay, TDO-expressing HEK293 cell clones; details: HEK293 cells, 24 hours of incubation, geometric mean; read-out: HEK293 TDO Kynurenine GMean IC50 (μM) (Cellular Assay)
T4 construct: expressed in transfected cells; host or cells: HEK293
Method: as §1, §2

[3] = comparative examples 4,6 vs 5,7 indazole, cellular potency, read-out: hIDO1
[4] = geometric mean, read-out: IDO1 GMean: IC50 (μM) (Biochemical Assay)
[5] = HEK293 cells, 24 hours of incubation, geometric mean, read-out: HEK293 IDO1 Kynurenine GMean IC50 (μM) (Cellular Assay)

T4 sequence (P48775 whole entry): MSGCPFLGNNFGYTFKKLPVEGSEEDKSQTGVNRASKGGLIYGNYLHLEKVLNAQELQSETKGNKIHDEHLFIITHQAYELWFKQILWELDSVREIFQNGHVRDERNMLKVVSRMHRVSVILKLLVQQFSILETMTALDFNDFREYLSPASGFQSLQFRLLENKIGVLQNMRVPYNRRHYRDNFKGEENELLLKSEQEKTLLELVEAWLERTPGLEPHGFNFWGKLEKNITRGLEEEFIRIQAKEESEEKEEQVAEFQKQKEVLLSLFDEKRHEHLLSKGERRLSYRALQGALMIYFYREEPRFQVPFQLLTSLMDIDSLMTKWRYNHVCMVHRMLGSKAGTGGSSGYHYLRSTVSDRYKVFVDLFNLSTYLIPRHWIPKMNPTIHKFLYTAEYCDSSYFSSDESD
T3 sequence (P48775 whole entry): as above
T1 sequence (P14902 whole entry): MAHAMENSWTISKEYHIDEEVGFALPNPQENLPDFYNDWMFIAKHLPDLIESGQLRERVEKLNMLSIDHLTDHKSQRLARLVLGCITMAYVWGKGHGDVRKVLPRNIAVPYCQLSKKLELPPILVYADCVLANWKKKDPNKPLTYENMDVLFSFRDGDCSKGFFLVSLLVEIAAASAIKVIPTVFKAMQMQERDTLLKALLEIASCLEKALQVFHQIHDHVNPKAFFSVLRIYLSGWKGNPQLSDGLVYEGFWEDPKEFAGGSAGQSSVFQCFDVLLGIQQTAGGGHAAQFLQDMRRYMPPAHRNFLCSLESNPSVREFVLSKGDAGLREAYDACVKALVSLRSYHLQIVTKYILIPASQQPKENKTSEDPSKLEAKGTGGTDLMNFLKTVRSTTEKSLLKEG
T2 sequence (P14902 whole entry): as above

SMILES	IC50 [1, 3] [µM]	IC50 (IDO1; comparative examples 4,6 vs 5,7 indazole, biochemical potency, read-out: IDO1) [µM]	IC50 (TDO) [µM]	IC50 (IDO1; [4]) [µM]	IC50 [2] [µM]	IC50 [1, 5] [µM]
OC1(c2cc(Cl)cc3cn[nH]c23)CC2(CCC2)C1	≥ 10					
OC1(c2cc(Cl)cc3[nH]ncc23)CC2(CCC2)C1	≥ 10					
OC1(c2cc(Cl)cc3[nH]ncc23)CC2(CCOCC2)C1	≥ 10	200				
OC1(c2cc(Cl)cc3cn[nH]c23)CCC(F)(F)CC1 [Compound P-0008, 1-(5-chloro-1H-indazol-7-yl)-4,4-difluorocyclohexan-1-ol]			0.0001 to 10	0.0001 to 10	0.0001 to 10	0.0001 to 10
OC1(c2cc(Cl)cc3cn[nH]c23)CC2(CC2)C1 [Compound P-0011, 5-(5-chloro-1H-indazol-7-yl)spiro[2.3]hexan-5-ol]			0.0001 to 10	0.0001 to 10	0.0001 to 10	
CC(C)(C)OC(=O)N1CCC2(CC1)CC(O)(c1cc(Cl)cc3cn[nH]c13)C2 [Compound P-0013, tert-butyl 2-(5-chloro-1H-indazol-7-yl)-2-hydroxy-7-azaspiro[3.5]nonane-7-carboxylate]			0.0001 to 10	0.0001 to 10	0.0001 to 10	
OC1(c2cc(Cl)cc3cn[nH]c23)CC2(CCNCC2)C1 [Compound P-0014, 2-(5-chloro-1H-indazol-7-yl)-7-azaspiro[3.5]nonan-2-ol]				0.0001 to 10		
CS(=O)(=O)N1CCC(O)(c2cc(Cl)cc3cn[nH]c23)CC1 [Compound P-0017, 4-(5-chloro-1H-indazol-7-yl)-1-(methylsulfonyl)piperidin-4-ol]			0.0001 to 10	0.0001 to 10	0.0001 to 10	
CS(=O)(=O)N1CC(O)(c2cc(Cl)cc3cn[nH]c23)C1 [Compound P-0018, 3-(5-chloro-1H-indazol-7-yl)-1-(methylsulfonyl)azetidin-3-ol]			0.0001 to 10	0.0001 to 10	0.0001 to 10	
CC(C)(C1CCN(C(=O)NCc2ccncc2)CC1)[C@H](O)c1cc(Cl)cc2cn[nH]c12 [Compound P-0019, (S)-4-(1-(5-chloro-1H-indazol-7-yl)-1-hydroxy-2-methylpropan-2-yl)-N-(pyridin-4-ylmethyl)piperidine-1-carboxamide]			0.0001 to 10	0.0001 to 10	0.0001 to 10	0.0001 to 10
CC(C)(C1CCN(C(=O)NCCN2CCOCC2)CC1)[C@H](O)c1cc(Cl)cc2cn[nH]c12 [Compound P-0020, (S)-4-(1-(5-chloro-1H-indazol-7-yl)-1-hydroxy-2-methylpropan-2-yl)-N-(2-morpholinoethyl)piperidine-1-carboxamide]			0.0001 to 10	0.0001 to 10	0.0001 to 10	0.0001 to 10
C[C@H](NC(=O)N1CCC(C(C)(C)[C@H](O)c2cc(Cl)cc3cn[nH]c23)CC1)c1ccccn1 [Compound P-0021, 4-((S)-1-(5-chloro-1H-indazol-7-yl)-1-hydroxy-2-methylpropan-2-yl)-N-((S)-1-(pyridin-2-yl)ethyl)piperidine-1-carboxamide]			0.0001 to 10	0.0001 to 10	0.0001 to 10	0.0001 to 10
CC(C)(C1CCN(C(=O)N2CCS(=O)(=O)CC2)CC1)[C@H](O)c1cc(Cl)cc2cn[nH]c12 [Compound P-0022, (S)-(4-(1-(5-chloro-1H-indazol-7-yl)-1-hydroxy-2-methylpropan-2-yl)piperidin-1-yl)(1,1-dioxidothiomorpholino)methanone]			0.0001 to 10	0.0001 to 10	0.0001 to 10	0.0001 to 10
CC(C)(C1CCN(C(=O)NCC2COC2)CC1)[C@H](O)c1cc(Cl)cc2cn[nH]c12 [Compound P-0023, (S)-4-(1-(5-chloro-1H-indazol-7-yl)-1-hydroxy-2-methylpropan-2-yl)-N-(oxetan-3-ylmethyl)piperidine-1-carboxamide]			0.0001 to 10	0.0001 to 10	0.0001 to 10	0.0001 to 10
CC(C)(C1CCN(C(=O)N[C@H]2CCC[C@@H]2O)CC1)[C@H](O)c1cc(Cl)cc2cn[nH]c12 [Compound P-0024, 4-((S)-1-(5-chloro-1H-indazol-7-yl)-1-hydroxy-2-methylpropan-2-yl)-N-((1S,2S)-2-hydroxycyclopentyl)piperidine-1-carboxamide]			0.0001 to 10	0.0001 to 10	0.0001 to 10	0.0001 to 10
CC(C)(C1CCN(C(=O)N[C@H]2CCC[C@H]2O)CC1)[C@H](O)c1cc(Cl)cc2cn[nH]c12 [Compound P-0025, 4-((S)-1-(5-chloro-1H-indazol-7-yl)-1-hydroxy-2-methylpropan-2-yl)-N-((1S,2R)-2-hydroxycyclopentyl)piperidine-1-carboxamide]			0.0001 to 10	0.0001 to 10	0.0001 to 10	0.0001 to 10
CC(C)(C1CCN(C(=O)NCc2cncnc2)CC1)[C@H](O)c1cc(Cl)cc2cn[nH]c12 [Compound P-0026, (S)-4-(1-(5-chloro-1H-indazol-7-yl)-1-hydroxy-2-methylpropan-2-yl)-N-(pyrimidin-5-ylmethyl)piperidine-1-carboxamide]			0.0001 to 10	0.0001 to 10	0.0001 to 10	0.0001 to 10
CC(C)(C1CCN(C(=O)NCc2ncccn2)CC1)[C@H](O)c1cc(Cl)cc2cn[nH]c12 [Compound P-0027, (S)-4-(1-(5-chloro-1H-indazol-7-yl)-1-hydroxy-2-methylpropan-2-yl)-N-(pyrimidin-2-ylmethyl)piperidine-1-carboxamide]			0.0001 to 10	0.0001 to 10	0.0001 to 10	0.0001 to 10
C[C@@H](NC(=O)N1CCC(C(C)(C)[C@H](O)c2cc(Cl)cc3cn[nH]c23)CC1)c1ccccn1 [Compound P-0028, 4-((S)-1-(5-chloro-1H-indazol-7-yl)-1-hydroxy-2-methylpropan-2-yl)-N-((R)-1-(pyridin-2-yl)ethyl)piperidine-1-carboxamide]			0.0001 to 10	0.0001 to 10	0.0001 to 10	0.0001 to 10
CC(=O)N1CCC(C(F)(F)C(O)c2c(F)c(Cl)cc3cn[nH]c23)CC1 (stereo not shown) [Compound P-0056, 1-(4-(2-(5-chloro-6-fluoro-1H-indazol-7-yl)-1,1-difluoro-2-hydroxyethyl)piperidin-1-yl)ethan-1-one]					> 10	
O=S1(=O)CC2(CC(O)(c3cc(Cl)cc4cn[nH]c34)C2)C1 [Compound P-0057, 6-(5-chloro-1H-indazol-7-yl)-6-hydroxy-2-thiaspiro[3.3]heptane 2,2-dioxide]			0.0001 to 10	0.0001 to 10	0.0001 to 10	
CC(C)(C1CCN(C(=O)[C@@H]2CCCN2)CC1)[C@H](O)c1cc(Cl)cc2cn[nH]c12 [Compound P-0138, (4-((S)-1-(5-chloro-1H-indazol-7-yl)-1-hydroxy-2-methylpropan-2-yl)piperidin-1-yl)((S)-1λ^2-pyrrolidin-2-yl)methanone]					0.0001 to 10	0.0001 to 10
CC(C)(C1CCN(C(=O)[C@H]2CCCN2)CC1)[C@H](O)c1cc(Cl)cc2cn[nH]c12 [Compound P-0139, (4-((S)-1-(5-chloro-1H-indazol-7-yl)-1-hydroxy-2-methylpropan-2-yl)piperidin-1-yl)((R)-1λ^2-pyrrolidin-2-yl)methanone]					0.0001 to 10	0.0001 to 10
CC(C)(C1CCN(C(=O)[C@@H]2CCNC2)CC1)[C@H](O)c1cc(Cl)cc2cn[nH]c12 [Compound P-0140, (4-((S)-1-(5-chloro-1H-indazol-7-yl)-1-hydroxy-2-methylpropan-2-yl)piperidin-1-yl)((R)-1λ^2-pyrrolidin-3-yl)methanone]					> 10	0.0001 to 10
CC(C)(C1CCN(C(=O)[C@H]2CCNC2)CC1)[C@H](O)c1cc(Cl)cc2cn[nH]c12 [Compound P-0141, (4-((S)-1-(5-chloro-1H-indazol-7-yl)-1-hydroxy-2-methylpropan-2-yl)piperidin-1-yl)((S)-1λ^2-pyrrolidin-3-yl)methanone]					> 10	0.0001 to 10

Source: US11149011B2, “Compounds and methods for IDO and TDO modulation, and indications therefor” (Plexxikon Inc., priority 2018, dated 2021)
